# Laboratory results reported in patent publication US8648116B2, “Derivatives of N-(arylamino) sulfonamides including polymorphs as inhibitors of MEK as well as compositions, methods of use and methods for preparing the same” (Ardea Biosciences, Inc., priority 2005, dated 2014).
# Where two headings read alike, the source gives them in different places.
# What was measured:
# A375 melanoma cells = test: Anchorage-dependent growth inhibition (CellTiterGlo/ATP, 48 hr); format: cell-based, human; conditions: Homo sapiens, A-375; A375 Melanoma, BRAF V600E; 48 hr, CellTiterGlo; read-out: Anchorage-Dependent GI50 (nM ± sd)
# Colo205 cells = test: Anchorage-independent growth inhibition (MTS, 7 days); format: cell-based, human; conditions: Homo sapiens, COLO 205, 168 h, Colo205 Colon, BRAF V600E, 0.15% agarose, read-out: Anchorage-Independent GI50 (nM ± sd)
# Experimental: Wells of an “ultra low binding” plate (Corning, Acton Mass.) were filled with 60 μl of a 0.15% agarose solution in complete RPMI. Then, 60 μl complete RPMI containing 9000 Colo205 cells in 0.15% agarose was added per well. After 24 hr, 60 μl of a 3× drug solution in agarose free complete RPMI was added. After 7 days, 36 μl 6×MTS reagent (CellTiter 96 Aqueous, Promega, Madison, Wis.) was added per well. After 2 hr at 37° C., absorbance at 490 nm was determined on the M5 plate reader (Molecular Devices, Sunnyvale, Calif.).
# Viability was determined by MTS assay.
# human hepatocytes = test: Primary hepatocyte toxicity (AK release, ATP, 48 hr); format: cell-based; conditions: 48 hr
# Experimental: Plated human hepatocytes were obtained from CellzDirect and processed according to manufacturer's instructions.
# (§1) After 48 hr, supernatant AK levels were determined using Toxilight, and cellular ATP levels were determined using CellTiterGlo. Full kill values were determined using 15 μM VRX-14686.
# [1] = system: human renal proximal tubule epithelial cells (RPTEC); test: Renal cell toxicity (AK release, ATP, 48 hr); format: cell-based; conditions: 48 hr
# Experimental: Cryopreserved human renal proximal tubule epithelial cells (RPTEC) were obtained from Cambrex and were processed according to manufacturer's instructions. Cells were expanded for 4 days and then plated in 96-well plates at 50,000 cells/well for drug exposure.
# as §1
# [2] = Plasma concentrations in mice (Example 94F); format: in vivo, nu/nu mice; conditions: A375-bearing nu/nu mice; for AUC / Cmax: female, nu/nu, mouse, plasma, po
# [3] = system: orthotopic Hep3B2.1-7 human hepatic carcinoma; test: Growth response of orthotopic Hep3B tumors in nude mice; format: in vivo, BALB/c nu/nu mice
# Experimental: Female BALB/c nu/nu mice (University of Adelaide, Waite Campus, SA, Australia), aged 10-14 weeks, with a body weight range: of 19.1-29.94 g (mean 22.95 g) were used for the study. The mice were divided into 6 Study groups (4 treatment groups and 2 control groups) as follows: • Number of Mice per Group: 10 in Groups 1 to 5 inclusive • 15 in ‘Take-Rate’ Control Group (Group 6)
# Hep3B human hepatic carcinoma cells (Passage 2 from working stock VP-Stock 353) were cultured in RPMI1640 cell culture medium, which was supplemented with 10% FBS and penicillin-streptomycin (501 U/mL final concentration). The cells were harvested by trypsinisation, washed twice in HBSS and counted. The cells were then resuspended in HBSS:Matrigel (1:1, v/v) and adjusted to a final volume containing 1×10^8 cells/mL. Prior to inoculation, the incision site was liberally swabbed with alcohol and an incision made through the abdominal wall to expose the liver. The needle was introduced through the surface of the liver where 10 μL of cells (1×10^6 cells) were discharged. The needle was held in this position for approximately 30 seconds to allow the Matrigel® to polymerize in order to avoid leakage of tumor cells into the abdominal cavity.
# Treatment commenced 14 days post-inoculation. On Day 7 of the study (21 days post-inoculation), all mice from the ‘Take-Rate’ control group were culled and the livers visually assessed for the presence of tumors.
# A stock solution was prepared weekly and stored at 4° C. Dosing solutions were prepared on each day of administration. […] The compound was administered at doses of 2, 10 and 50 mg/kg.
# Liver and tumor wet weight were measured when each were excised post-mortem on the termination day of the study. At the termination of the study, livers were excised from all mice in each study group and weighed. The number of visible tumors, if present, was counted. These tumors were removed from the liver and weighed.
# A One-Way Analysis of Variance (ANOVA) (All Pairwise Multiple Comparison Procedure and Multiple Comparison versus Control Group) was performed on liver weight and tumor weight data at the end of the study. […] The same statistical analyses were performed on the data for the tumor-bearing mice in the study.
# [4] = system: human A375 melanoma xenografts
# [5] = system: Colo205 colon cancer cells; test: Anchorage-dependent growth inhibition (CellTiterGlo/ATP, 48 hr); conditions: Homo sapiens, COLO 205, 48 h, read-out: Anchorage-Dependent GI50 (nM ± sd)
# Experimental: (§2) Cells were maintained at 37° C., 5% CO2, and 100% humidity. Colo205 cells were maintained in RPMI supplemented with 10% fetal bovine serum, glutamine (2 mM), penicillin (100 U/ml), and streptomycin (100 μg/ml). For growth inhibition experiments, cells were plated in white 384-well microplates at 1000 cells/20 dwell. After 24 hr, 5 μl of a 5× drug stock solution was added. All drugs were initially prepared as 200× stocks in DMSO, such that final DMSO concentration was 0.5%. Cells were incubated for 48 hr at 37° C. and ATP levels were determined using CellTiterGlo (Promega, Madison, Wis.). […] Non-linear curve-fitting was performed using GraphPad Prism 4 (GraphPad Software, San Diego, Calif.).
# HT29 colon cells = test: as above; conditions: Homo sapiens, HT-29, 48 h, read-out: Anchorage-Dependent GI50 (nM ± sd)
# Experimental: as §2
# A431 epidermoid cells = test: as above; conditions: Homo sapiens, A-431, 48 h, read-out: Anchorage-Dependent GI50 (nM ± sd)
# Experimental: as §2
# [6] = oral, column 1, no head (b1249 order: 50 mg/kg QD)
# [7] = oral, column 2, no head (b1249 order: 25 mg/kg BID)
# [8] = oral, column 3, no head (b1249 order: second 50 mg/kg QD)
# [9] = oral, column 4, no head (b1249 order: 12.5 mg/kg BID)
# [10] = 50 mg/kg, oral, column 1, no head (b1249 order: 50 mg/kg QD)
# [11] = 50 mg/kg, oral, column 3, no head (b1249 order: second 50 mg/kg QD)
# [12] = Compound A 2 mg/kg p.o. once daily Day 0 to 18, tumor-bearing mice
# [13] = Compound A 10 mg/kg p.o. once daily Day 0 to 18, tumor-bearing mice
# [14] = Compound A 50 mg/kg p.o. once daily Day 0 to 18, tumor-bearing mice
# [15] = Group 3: Compound A 50 mg/kg po qd × 14
# [16] = Group 3: Compound A 50 mg/kg po qd × 14, n=9
# [17] = Group 4: Compound A 25 mg/kg po bid × 14
# [18] = Group 4: Compound A 25 mg/kg po bid × 14, n=9
# [19] = Group 5: Compound A 25 mg/kg po qd × 14
# [20] = Group 5: Compound A 25 mg/kg po qd × 14, n=9
# [21] = Group 6: Compound A 12.5 mg/kg po bid × 14
# [22] = Group 6: Compound A 12.5 mg/kg po bid × 14, n=9
structure (smiles),measurement,setting,value
COc1cc(F)c(F)c(Nc2ccc(I)cc2F)c1NS(=O)(=O)C1(C[C@H](O)CO)CC1 [Compound A],GI50,A375 melanoma cells,67 ± 12 nM
same,GI50,Colo205 cells,33 ± 16 nM
same,AK release (% Cell Survival) Hepatocytes Human,human hepatocytes; Compound A 1.1 (μM),92%
same,ATP (% Cell Survival) Hepatocytes Human,human hepatocytes; Compound A 1.1 (μM),108%
same,AK release (% Cell Survival) Hepatocytes Human,human hepatocytes; Compound A 3.3 (μM),102%
same,ATP (% Cell Survival) Hepatocytes Human,human hepatocytes; Compound A 3.3 (μM),104%
same,AK release (% Cell Survival) Hepatocytes Human,human hepatocytes; Compound A 10.0 (μM),112%
same,ATP (% Cell Survival) Hepatocytes Human,human hepatocytes; Compound A 10.0 (μM),107%
same,AK release (% Cell Survival) Hepatocytes Human,human hepatocytes; Compound A 30.0 (μM),109%
same,ATP (% Cell Survival) Hepatocytes Human,human hepatocytes; Compound A 30.0 (μM),81%
same,AK release (% Cell Survival) RPTEC Human,[1]; Compound A 1.1 (μM),96%
same,ATP (% Cell Survival) RPTEC Human,[1]; Compound A 1.1 (μM),94%
same,AK release (% Cell Survival) RPTEC Human,[1]; Compound A 3.3 (μM),95%
same,ATP (% Cell Survival) RPTEC Human,[1]; Compound A 3.3 (μM),91%
same,AK release (% Cell Survival) RPTEC Human,[1]; Compound A 10.0 (μM),99%
same,ATP (% Cell Survival) RPTEC Human,[1]; Compound A 10.0 (μM),85%
same,AK release (% Cell Survival) RPTEC Human,[1]; Compound A 30.0 (μM),41%
same,ATP (% Cell Survival) RPTEC Human,[1]; Compound A 30.0 (μM),34%
same,Cmin,[2]; [6],60 ng/mL
same,Cmin Free Fraction,[2]; [6],0.117 ng/mL
same,Cmin,[2]; [7],1240 ng/mL
same,Cmin Free Fraction,[2]; [7],2.48 ng/mL
same,Cmin,[2]; [8],30 ng/mL
same,Cmin Free Fraction,[2]; [8],0.059 ng/mL
same,Cmin,[2]; [9],490 ng/mL
same,Cmin Free Fraction,[2]; [9],0.986 ng/mL
same,AUC,[2]; 12.5 mg/kg,78000 ng·h/mL
same,Cmax,[2]; 12.5 mg/kg,7800 ng/mL
same,AUC,[2]; 25 mg/kg,117000 ng·h/mL
same,Cmax,[2]; 25 mg/kg,10200 ng/mL
same,AUC,[2]; [10],132000 ng·h/mL
same,Cmax,[2]; [10],23800 ng/mL
same,AUC,[2]; [11],66500 ng·h/mL
same,Cmax,[2]; [11],11900 ng/mL
same,No. of Mice with Tumors (out of 10),[3]; Compound A 2 mg/kg p.o. once daily Day 0 to 18,6
same,Average Liver Weight,[3]; [12],2.775 g
same,Average Tumor Weight,[3]; [12],1.776 g
same,No. of Mice with Tumors (out of 10),[3]; Compound A 10 mg/kg p.o. once daily Day 0 to 18,7
same,Average Liver Weight,[3]; [13],2.551 g
same,Average Tumor Weight,[3]; [13],1.407 g
same,No. of Mice with Tumors (out of 10),[3]; Compound A 50 mg/kg p.o. once daily Day 0 to 18,4
same,Average Liver Weight,[3]; [14],1.677 g
same,Average Tumor Weight,[3]; [14],0.624 g
same,% TGD,[4]; [15],21%
same,Median TTE,[4]; [15],27.5 days
same,T − C,[4]; [15],4.7 days
same,Regressions CR,[4]; [16],0
same,Regressions PR,[4]; [16],1
same,Regressions TFS,[4]; [16],0
same,% TGD,[4]; [17],163%
same,MTV (n) Day 60,[4]; [17],0 (4)
same,Median TTE,[4]; [17],59.9 days
same,T − C,[4]; [17],37.1 days
same,Regressions CR,[4]; [18],5
same,Regressions PR,[4]; [18],4
same,Regressions TFS,[4]; [18],4
same,% TGD,[4]; [19],12%
same,Median TTE,[4]; [19],25.6 days
same,T − C,[4]; [19],2.8 days
same,Regressions CR,[4]; [20],0
same,Regressions PR,[4]; [20],0
same,Regressions TFS,[4]; [20],0
same,% TGD,[4]; [21],21%
same,Median TTE,[4]; [21],27.5 days
same,T − C,[4]; [21],4.7 days
same,Regressions CR,[4]; [22],0
same,Regressions PR,[4]; [22],1
same,Regressions TFS,[4]; [22],0
same,Mean BW Nadir,"[4]; mouse, in vivo, po, 25 mg/kg",−0.6% Day 15
same,GI50,[5],74 ± 45 nM
same,GI50,HT29 colon cells,70 ± 12 nM
same,GI50,A431 epidermoid cells,> 10000 nM
